From patent US6338953B1, “Expression of an exogenous gene in a mammalian cell by use of a non-mammalian DNA virus having an altered coat protein” (The General Hospital Corporation, priority 1996, dated 2002)

Tests used:
[1] = tested on: VGZ3-treated mammalian cells; test: Inhibition of β-galactosidase expression in VGZ3-treated cells; assay type: cell-based; conditions: data not shown
HepG2 cells [2] = test: Colorimetric (ONPG) β-galactosidase assay of cell extracts; assay type: cell-based, human
Description: Adherent cell lines were seeded one day prior to infection. Cells were exposed to virus in 2 ml of medium for 90 minutes, and then the virus-containing medium was removed and replaced with fresh medium. Mock-infected cells were treated with 2 ml medium lacking the viral inoculum.
To measure expression of the reporter gene in the infected cells, colorimetric assays of β-galactosidase enzymatic activity were performed with standard methods (Norton et al., 1985, Molecular & Cellular Biology 5:281-290). Other conventional methods for measuring β-galactosidase activity could be used in lieu of the methods employed in this example. Cell extracts were prepared at one day post-infection. Cell monolayers were rinsed three times with PBS, scraped from the dish, and collected by low-speed centrifugation. The cell pellets were resuspended in 25 mM Tris pH 7.4/0.1 mM EDTA and then subjected to three cycles of freezing in liquid nitrogen and thawing in a 37° C. water bath. The extracts were then clarified by centrifugation at 14,000×g for 5 minutes. Standard conditions for assaying β-galactosidase activity utilized 0.1 ml of cell extract, 0.8 ml of PM-2 buffer, and 0.2 ml of […] (4 mg/ml) in PM-2 buffer for 10 minutes at 37° C. (Norton et al., 1985, Mol. & Cell. Biol. 5:281-290). The reaction was stopped by the addition of 0.5 ml of 1 M sodium carbonate. The amount of substrate hydrolyzed was detected spectrophotometrically at 420 nm, and β-galactosidase enzymatic activity was calculated with conventional methods (Norton et al., 1985, Mol. & Cell. Biol. 5:281-290). The assay was verified to be linear with respect to extract concentration and time. Extract protein concentrations were determined using the Coomassie Plus protein assay (Pierce) with bovine serum albumin as a standard, and the level of β-galactosidase activity was expressed as units of β-galactosidase activity per mg of protein. Other standard protein assays can be used, if desired.
Baculovirus-mediated Gene Transfer is Inhibited by Lysomotropic Agents: To gain insight into the mechanism by which baculoviruses express an exogenous gene in a mammalian cell, the susceptibility of gene expression to a lysomotropic agent was examined. Like other enveloped viruses, the budded form of AcMNPV normally enters cells via endocytosis, followed by low pH-triggered fusion of the viral envelope with the endosomal membrane, thus allowing escape into the cytoplasm (Blissard et al., 1993, J. Virol. 66:6829-6835; Blissard et al., 1990, Ann. Rev. of Entomol. 35:127-155). To determine whether endosome acidification was necessary for baculovirus-mediated gene transfer into mammalian cells, HepG2 cells were infected with RSV-lacZ AcMNPV in the presence of chloroquine, a lysomotropic agent. HepG2 cells were exposed to AcMNPV virus in media containing or lacking inhibitor for 90 minutes, then the virus-containing media were removed and replaced with fresh media containing or lacking inhibitors as listed.
At one day post-infection, the cells were harvested and extracts were assayed for β-galactosidase activity and protein content. Each value in the table represents the average of three independent assays, with the amount of β-galactosidase produced by the RSV-lacZ AcMNPV virus in the absence of inhibitors assigned a value of 100%. β-galactosidase activity was normalized for protein content of each extract. […]

Rat Hepatocytes = test: as above; conditions: background subtracted
HepG2 cells [3] = assay type: cell-based, human; conditions: moi 100

Molecule: CCN(CC)CCCC(C)Nc1ccnc2cc(Cl)ccc12 (stereo not drawn) [chloroquine]
- effect on β-galactosidase expression in VGZ3-treated mammalian cells [1]: inhibited β-galactosidase expression
- effect on de novo expression of β-galactosidase (HepG2 cells [2]; 25 μM continuously present during and after exposure to virus): completely prevented
- effect on β-galactosidase expression (HepG2 cells [2]; added 90 minutes after exposure to the virus): only partial inhibition

Molecule: Albumin
- Promoter strength, Rat Hepatocytes −butyrate (Rat Hepatocytes): 0.15 ± 0.08 Units/mg
- Promoter strength, Hep G2 −butyrate (HepG2 cells [2]; moi 100, 24 hours, mock background subtracted): 0.0 ± 0.0 Units/mg
- Promoter strength, Hep G2 +butyrate (HepG2 cells [2]; moi 100, sodium butyrate added 2 hours after infection, 24 hours, background subtracted): 0.08 ± 0.04 Units/mg
- X-gal staining of cells not treated with butyrate (HepG2 cells [3]): positively stained cells were detected

Molecule: C[C@@H]1C[C@@H]([C@H](O)CC2CC(=O)NC(=O)C2)C(=O)[C@@H](C)C1 [cycloheximide]
- effect on β-galactosidase expression in VGZ3-treated mammalian cells [1]: inhibited β-galactosidase expression
- inhibition of accumulation of β-galactosidase enzyme activity (HepG2 cells [2]; HepG2 infected with RSV-lacZ virus, drug after infection): more than 90%
